From patent US12295396B2, “Antagonists of T2R54 and compositions and uses thereof” (Firmenich Incorporated, priority 2018, dated 2025)
Read-outs that look alike come from different tables or passages of the source.

Molecular target: T1, hT2R54 (Homo sapiens, UniProt P59534)
T1 construct: expressed in transfected cells; it overexpresses a promiscuous G protein
T1 sequence (P59534 1-338): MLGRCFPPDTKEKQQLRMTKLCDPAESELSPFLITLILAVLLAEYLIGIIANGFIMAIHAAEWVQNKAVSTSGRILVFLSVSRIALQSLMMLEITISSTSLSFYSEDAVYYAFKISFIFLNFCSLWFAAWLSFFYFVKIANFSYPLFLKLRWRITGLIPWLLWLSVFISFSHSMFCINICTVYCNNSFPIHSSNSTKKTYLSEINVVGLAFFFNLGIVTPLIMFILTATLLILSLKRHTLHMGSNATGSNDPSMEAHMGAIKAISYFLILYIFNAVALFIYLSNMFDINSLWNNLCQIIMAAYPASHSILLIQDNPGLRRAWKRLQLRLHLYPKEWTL
Test: Cell-based assay for measuring hT2R54 inhibition (FLIPR calcium, Fluo4AM, acetaminophen as bitter agonist)
Conditions: read-out: hT2R54 IC50
Procedure, shortened: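 Cells stably co-expressing hT2R54 and a promiscuous G protein were loaded with Fluo4AM and given acetaminophen dose series, alone or with fixed concentrations of test compound. On FLIPR, baseline was recorded for 10 s and fluorescence for 3 min after addition. IC50 is the concentration halving the acetaminophen-alone response.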

[1] = Table 2, cells stably expressing hT2R54 and a promiscuous G protein
[2] = Table 4, cells stably expressing hT2R54 and a promiscuous G protein
[3] = Table 6, cells stably expressing hT2R54 and a promiscuous G protein
[4] = Table 5, cells stably expressing hT2R54 and a promiscuous G protein

IC50 [1] [nM]	Compound	further results
1800	CC(=O)c1cc2c(cc1NC(=O)CN1CCN(C(=O)[C@@H]3CCCO3)CC1)OCCO2 [compound 341]	
	COc1cc2ncnc(NCc3cccc4c3OCO4)c2cc1OC [B]	IC50 (other T2R54 bitter blockers (table after b418)): 1800 nM
6	CC(=O)c1cc2c(cc1NC(=O)CN1CCN(C(=O)c3ccc(Cn4cccn4)o3)CC1)OCO2 [compound 292]	
	CC(=O)c1cc2c(cc1NC(=O)CC1CCCN(C(=O)c3ccccn3)C1)OCO2 (stereo not shown) [compound 507]	IC50 (Table 8): 275 nM
	CC(=O)c1cc2c(cc1NC(=O)CN1CCN(Cc3ccccn3)CC1)OCO2 [compound 106]	IC50 (Table 3, cells stably expressing hT2R54 and a promiscuous G protein): 300 nM
	CC(=O)c1cc2c(cc1NC(=O)CC1CN(C(C)=O)CCO1)OCO2 (stereo not shown) [compound 509]	IC50 (Table 8): 180 nM
	CC(=O)c1cc2c(cc1NC(=O)CN1CCCC(O)C1)OCO2 (stereo not shown) [compound 122]	IC50 [2]: < 20 nM
70	CC(=O)c1cc2c(cc1NC(=O)CN1CCN(C(=O)CC3CCCO3)CC1)OCO2 (stereo not shown) [compound 322]	
	CC(=O)c1cc2c(cc1NC(=O)CC1CCCN(C(=O)c3ccoc3)C1)OCO2 (stereo not shown) [compound 196, N-(6-Acetylbenzo[d][1,3]dioxol-5-yl)-2-(1-(furan-3-carbonyl)piperidin-3-yl)acetamide]	IC50 (Table 8): 184 nM
130	CC(=O)c1cc2c(cc1NC(=O)CN1CCN(S(=O)(=O)C(C)C)CC1)OCO2 [compound 5, N-(6-acetylbenzo[d][1,3]dioxol-5-yl)-2-(4-(isopropylsulfonyl)piperazin-1-yl)acetamide]	
1440	COc1cc2c(cc1NC(=O)CN1CCN(C(=O)c3ccncc3)CC1)OCO2 [compound 96]	
40	CC(=O)c1cc2c(cc1NC(=O)CN1CCN(C(=O)C3CC3)CC1)OCO2 [compound 12]	
	COc1cc2c(cc1NC(=O)CN1CCOCC1)CCC2 [compound 449]	IC50 [2]: 804 nM
40	CC(=O)c1cc2c(cc1NC(=O)CN1CCN(C(=O)C(C)C)CC1)OCO2 [compound 11]	
	CC(=O)c1cc2c(cc1NC(=O)CN1CCC(NC(=O)c3ccccn3)CC1)OCO2 [compound 174]	IC50 [3]: 270 nM
	CC(=O)c1cc2c(cc1NC(=O)CC1CN(C(=O)C3CCCO3)CCO1)OCO2 (stereo not shown) [compound 510]	IC50 (Table 8): 150 nM
	CC(=O)c1cc2c(cc1NC(=O)CN1CCC(N(C)C(=O)c3ccco3)CC1)OCO2 [compound 181]	IC50 [3]: 676 nM
	CC(=O)c1cc2c(cc1NC(=O)CN1CCCC(C(=O)N(C)C)C1)OCO2 (stereo not shown) [compound 158]	IC50 [4]: 107 nM
130	COc1cc2c(cc1NC(=O)CN1CCN(C(=O)c3ccco3)CC1)OCO2 [compound 88]	
	COc1cc2c(cc1NC(=O)C(C)C1CCN(C(=O)OC(C)(C)C)CC1)OCO2 (stereo not shown) [compound 525]	IC50 (Table 9): 3000 nM
	CNC(=O)C1CCN(CC(=O)Nc2cc3c(cc2C(C)=O)OCO3)CC1 [compound 161]	IC50 [4]: 1350 nM
	CC(=O)c1cc2c(cc1NC(=O)Cc1ccccc1C)OCO2 [compound 277]	IC50 (Table 9): 740 nM

IC50 [1] [nM]	Compound	further results
170	CC(=O)c1cc2c(cc1NC(=O)CN1CCN(C(=O)COC(C)C)CC1)OCO2 [compound 20]	
	CC(=O)c1cc2c(cc1NC(=O)CN1CCC(C(=O)NCc3ccccc3)CC1)OCO2 [compound 165]	IC50 [4]: 1400 nM
	CC(=O)c1cc2c(cc1NC(=O)CC1CCN(C(=O)C(C)(C)C)C1)OCO2 (stereo not shown) [compound 262]	IC50 (Table 8): 290 nM
300	COc1cc2c(cc1NC(=O)CN1CCN(C(=O)C3CCCC3)CC1)OCO2 [compound 404]	
200	CC(=O)c1cc2c(cc1NC(=O)CN1CCN(C(=O)c3cn(C)nc3C)CC1)OCO2 [compound 74]	
	CC(=O)c1cc2c(cc1NC(=O)Cc1c(C)noc1C)OCO2 [compound 518]	IC50 (Table 9): 3800 nM
490	COc1cc2c(cc1NC(=O)CN1CCN(C(=O)CC(C)C)CC1)OCO2 [compound 6, N-(6-Methoxybenzo[d][1,3]dioxol-5-yl)-2-(4-(3-methylbutanoyl)piperazin-1-yl)acetamide]	
336	CC(=O)c1cc2c(cc1NC(=O)CN1CCN(C(=O)C3CCOCC3)CC1)OCO2 [compound 24]	
	CC(=O)c1cc2c(cc1NC(=O)CC1CCN(C(=O)c3ncc[nH]3)CC1)OCO2 [compound 462]	IC50 (Table 8): 30 nM
30	CC(=O)c1cc2c(cc1NC(=O)CN1CCN(C(=O)C3CCCCO3)CC1)OCCO2 (stereo not shown) [compound 343]	
300	COc1cccc(C(=O)N2CCN(CC(=O)Nc3cc4c(cc3OC)OCO4)CC2)c1 [compound 369]	
	CC(=O)c1cc2c(cc1NC(=O)CC1CCN(C(=O)CC(C)C)CC1)OCO2 [compound 198, N-(6-acetylbenzo[d][1,3]dioxol-5-yl)-2-(1-(3-methylbutanoyl)piperidin-4-yl)acetamide]	IC50 (Table 8): 45 nM
34	CC(=O)c1cc2c(cc1NC(=O)CN1CCN(C(=O)c3cscn3)CC1)OCO2 [compound 285]	
4360	CC(=O)c1cc2c(cc1NC(=O)CN1CCN(C(=O)C3CCN(C)CC3)CC1)OCO2 [compound 25]	
	CC(=O)c1cc2c(cc1NC(=O)CC1CCN(C(=O)C(C)C)C1)OCO2 (stereo not shown) [compound 261]	IC50 (Table 8): 958 nM
100	CC(=O)c1cc2c(cc1NC(=O)CN1CCN(C(=O)c3cnon3)CC1)OCO2 [compound 75]	
	COc1cc2c(cc1NC(=O)CC1CCCN(C(=O)c3ccco3)C1)OCO2 (stereo not shown) [compound 512]	IC50 (Table 8): 7700 nM
	CC(=O)c1cc2c(cc1NC(=O)CC1CCN(C(=O)c3ccc(C)o3)CC1)OCO2 [compound 467]	IC50 (Table 8): 58 nM
150	CC(=O)c1cc2c(cc1NC(=O)CN1CCN(C(=O)C3CCCCC3)CC1)OCO2 [compound 17]	
100	COCc1ccc(C(=O)N2CCN(CC(=O)Nc3cc4c(cc3OC)OCO4)CC2)o1 [compound 396]	
50	CC(=O)c1cc2c(cc1NC(=O)CN1CCN(C(=O)CC3CCOC3)CC1)OCCO2 (stereo not shown) [compound 344]	
	COc1cc2c(cc1NC(=O)CN1CCN(C(=O)OC(C)(C)C)CC1)OCO2 [compound 148]	IC50 [2]: < 2000 nM

IC50 [1] [nM]	Compound	further results
50	CC(=O)c1cc2c(cc1NC(=O)CN1CCN(C(=O)c3ccccc3F)CC1)OCO2 [compound 44]	
40	CC(=O)c1cc2c(cc1NC(=O)CN1CCN(C(=O)OC(C)C)CC1)OCO2 [compound 30]	
	COC(=O)C1CN(CC(=O)Nc2cc3c(cc2C(C)=O)OCO3)CCC1=O (stereo not shown) [compound 126]	IC50 [2]: 154 nM
130	CC(=O)c1cc2c(cc1NC(=O)CN1CCN(C(=O)[C@H]3CCCO3)CC1)OCO2 [compound 315]	
< 1000	COc1cc2c(cc1NC(=O)CN1CCN(C(=O)c3ccc(F)cc3)CC1)OCO2 [compound 97]	
60	CC(=O)c1cc2c(cc1NC(=O)CN1CCN(C(=O)[C@@H]3CCCO3)CC1)OCO2 [compound 314]	
	CC(=O)c1cc2c(cc1NC(=O)CN1CCC(NC(=O)C(C)C)CC1)OCO2 [compound 168]	IC50 [3]: 140 nM
5000	COc1cc2c(cc1NC(=O)CN1CCN(C(=O)c3ccc(O)c(O)c3)CC1)OCO2 [compound 381]	
70	CC(=O)c1cc2c(cc1NC(=O)CN1CCN(C(=O)c3nc(C)oc3C)CC1)OCO2 [compound 76]	
108	CC(=O)c1cc2c(cc1NC(=O)CN1CCN(C(=O)c3cocn3)CC1)OCO2 [compound 286]	
	CCNC(=O)CCN(C)CC(=O)Nc1cc2c(cc1C(C)=O)OCO2 [compound 135]	IC50 [2]: 500 nM
	CC(=O)c1cc2c(cc1NC(=O)CN1CCC(C(=O)Nc3cccnc3)CC1)OCO2 [compound 163]	IC50 [4]: 459 nM
	COCC(=O)N1CCC(CC(=O)Nc2cc3c(cc2C(C)=O)OCO3)CC1 [compound 469]	IC50 (Table 8): 500 nM
	CC(=O)c1cc2c(cc1NC(=O)CC1CCN(C(=O)[C@@H]3CCCO3)CC1)OCO2 [compound 472]	IC50 (Table 8): 300 nM
80	COCCOCC(=O)N1CCN(CC(=O)Nc2cc3c(cc2C(C)=O)OCCO3)CC1 [compound 339]	
	CC(=O)c1cc2c(cc1NC(=O)CNC1CCN(C(=O)c3ccco3)CC1)OCO2 [compound 178]	IC50 [3]: 60 nM
	COC(=O)C1CCN(CC(=O)Nc2cc3c(cc2C(C)=O)OCO3)CC1 [compound 125]	IC50 [2]: 100 nM
	CC(=O)c1cc2c(cc1NC(=O)CN(C)C1CCCN(C(=O)c3ccco3)C1)OCO2 (stereo not shown) [compound 186]	IC50 (Table 7, cells stably expressing hT2R54 and a promiscuous G protein): 20 nM
439	COC(=O)c1cc2c(cc1NC(=O)CN1CCN(C(=O)CC3CCCO3)CC1)OCO2 (stereo not shown) [compound 351]	
26	CC(=O)c1cc2c(cc1NC(=O)CN1CCN(C(=O)c3cccc(F)c3)CC1)OCO2 [compound 46]	
40	CC(=O)c1cc2c(cc1NC(=O)CN1CCN(C(=O)c3cc(C)on3)CC1)OCO2 [compound 300]	
	CC(=O)c1cc2c(cc1NC(=O)CC1CCCN(C(=O)c3cnn(C)c3)C1)OCO2 (stereo not shown) [compound 221]	IC50 (Table 8): 60 nM

Compound	IC50 [1] [nM]	further results
COc1cc2c(cc1NC(=O)CN1CCN(C(=O)Cc3ccoc3)CC1)OCO2 [compound 401]	130	
CC(=O)c1cc2c(cc1NC(=O)CN1CCN(C(=O)Cc3ccc(O)cc3)CC1)OCO2 [compound 61]	50	
COc1cccc(CC(=O)N2CCN(CC(=O)Nc3cc4c(cc3C(C)=O)OCO4)CC2)c1 [compound 58]	60	
COc1ccc(CC(=O)N2CCN(CC(=O)Nc3cc4c(cc3C(C)=O)OCO4)CC2)cc1 [compound 62]	200	
